Where two headings read alike, the source gives them in different places.
Assays:
[1] = tested on: kanamycin-resistant strain of E. coli MG1655; assay: Susceptibility to multiple antibiotics on a single microfluidic device using breakpoint values; type: cell-based; conditions: 18 h; for effect on growth of the strain: vancomycin 2, 4, 8 μg/mL, tetracycline 0.5, 1, 2 μg/mL, kanamycin 1, 2, 4 μg/mL
Source text: In this Example, a single microfluidic device was used to simultaneously test the susceptibility of the kanamycin-resistant strain of E. coli MG1655 described above to multiple antibiotics using breakpoint values.
In clinical microbiology, a strain is classified as susceptible, intermediate, or resistant based on the relationship of the MIC of an antibiotic to specified ‘breakpoint’ values. Breakpoint values are set by organizations, such as the CLSI, and take into consideration MIC values of wild type strains, pharmacokinetic/pharmacodynamic data, and clinical outcomes. Breakpoint values are available for specific clinically relevant pairings of bacterial species and antibiotics and enable clinical decisions without knowing the exact MIC value.
Specifically, vancomycin, tetracycline, and kanamycin were added to the reaction wells of a single device. The most common breakpoints for vancomycin (susceptible <2 μg/mL, resistant >2 μg/mL), tetracycline (susceptible <1 μg/mL, intermediate=2 μg/mL, resistant >2 μg/mL), and gentamicin (susceptible <2 μg/mL, intermediate=4 μg/mL, resistant >4 μg/mL) were used. As there are no published breakpoints available for kanamycin, the breakpoint values for the structurally related aminoglycoside, gentamicin, against aerobic bacteria was used. A microfluidic device with ten chambers was prepared as described in Example 1 above. The ten chambers were divided into three chambers for each antibiotic vancomycin (2, 4, 8 μg/mL), tetracycline (0.5, 1, 2 μg/mL), and kanamycin (1, 2, 4 μg/mL) and one chamber for a control containing no antibiotic.

E. coli (MG1655) [2] = assay: Off-chip MIC, broth dilution method according to CLSI protocols; type: cell-based; parameters: MIC, Broth: unit not given beside the values; conditions: for MIC, Broth: E. coli, broth dilution, CAMHB, 20 h at 35° C.
Method: (§1) Off-chip MIC assays using the broth dilution method according to CLSI protocols were performed as control experiments and to validate experimental data obtained with the microfluidic device.

K. pneumoniae [3] = assay: as above; type: cell-based; conditions: CAMHB, 20 h at 35° C.
Method: as §1

[4] = tested on: kanamycin-resistant E. coli strain (from MG1655); assay: microbe, parasite or virus in culture; conditions: Escherichia coli, MG1655, 18 h, read-out: MIC of the resistant strain
Method: Specifically, 100 μL of an overnight culture of E. coli MG1655 were plated on LB agar plates supplemented with 16 μg/mL kanamycin; the antibiotic concentration was ˜2× the MIC of kanamycin measured against E. coli MG1655. […] One of these colonies was characterized for its sensitivity to kanamycin in the microfluidic device. The kanamycin-resistant strain was compared to the wild type parent strain.
The devices were assembled and placed under vacuum for degassing. After the devices were removed from the vacuum, an aliquot (20 μL) of a suspension of cells of the resistant strain was introduced into the inlet port of one device and an aliquot (20 μL) of a suspension of cells of the wild type strain was introduced into the inlet port of the second device. Degas-driven flow filled and isolated the samples in the chambers. The devices were incubated for 18 h at 35° C. in a humidified incubator.
To eliminate external equipment needed for interpreting the test results, a pH sensor was incorporated to indicate cell growth. Specifically, the pH indicator phenol red (0.05% w/v) and glucose (1% w/v) were added to CAMHB media and adjusted the pH to 8.2. Phenol red was selected as it produces a distinct color change close to neutral pH and is not absorbed by PDMS. At the initial pH of the nutrient media, pH 8.2, phenol red appears bright red. […]

[5] = tested on: kanamycin-resistant E. coli strain (from MG1655); assay: microbe, parasite or virus in culture; conditions: Escherichia coli, MG1655, read-out: MIC of the resistant strain, control broth dilution
Method: A 1:10 dilution series of the stock solutions in cation-adjusted Mueller-Hinton broth (CAMHB) was prepared and added to CAMBH (pH 7.3) to create a two-fold series dilution in which the total volume was 1 mL. Cell solutions of E. faecalis (1131), P. mirabilis (HI4320), K. pneumoniae, and E. coli (MG1655) were prepared in 13×100 mm tubes by adjusting the concentration of cells in overnight cultures to match the turbidity of a 0.5 McFarland standard (˜10^8 CFU/mL) using CAMHB. The solutions were diluted 100-fold in CAMHB and 1 mL of the suspension was added to 1 mL of antibiotic solution—prepared as described above—to yield a final cell concentration of ˜5×10^5 CFU/mL. The cultures were incubated for 20 h in a humidified incubator at 35° C. (no shaking) with the exception of experiments with vancomycin and E. faecalis, which were incubated for 24 h according to CLSI protocols. The MIC was determined as the lowest concentration of antibiotic at which no growth was visible after incubation.
Thus, the MIC of the kanamycin-resistant E. coli strain and the susceptible strain was determinable by visually identifying the chamber containing the lowest concentration of kanamycin in which the pH indicator remained red.

E. faecalis (1131) [6] = assay: Off-chip MIC, broth dilution method according to CLSI protocols; type: cell-based; parameters: unit not given beside the values; conditions: CAMHB, 20 h at 35° C. (vancomycin 24 h)
Method: as §1

P. mirabilis (HI4320) [7] = assay: as above; type: cell-based; parameters: unit not given beside the values; conditions: CAMHB, 20 h at 35° C.
Method: as §1

K. pneumoniae [8] = assay: MIC measurement using the self-loading microfluidic device; type: cell-based; conditions: 18 h at 35° C., CAMBH pH 8.2 with 1% glucose and 0.05% phenol red, dilution series 0.5-1024 μg/mL
Method: (§2) Minor adjustments were made to procedures mimicking the CLSI guidelines to perform MIC measurements using microfluidic devices prepared as described above. Antibiotic stock solutions (10 mg/mL in sterile deionized water) of vancomycin hydrochloride, tetracycline hydrochloride, and kanamycin monosulfate were used to prepare a 1:10 dilution series. Appropriate amounts of these dilutions were added to sterile deionized water to create a two-fold dilution series that varied from 0.5-1024 μg/mL. Antibiotic solution (2.94 μL) was added to each chamber with the lowest antibiotic concentration located closest to the inlet port and the highest antibiotic concentration located in the chamber closest to the vacuum well. After antibiotic loading, the device was placed in a laminar flow hood to evaporate the liquid. After the liquid was evaporated, the device was assembled by placing the layer of PDMS forming the channel section over the chamber layer containing the dried antibiotic such that the channels connected the chambers. The assembled device was then placed under vacuum.
(§3) The standardized culture was then diluted 1:200 in CAMBH media, pH 8.2 supplemented with 1% glucose and 0.05% phenol red to provide a colorimetric change upon growth. The device was removed from the vacuum and 20 μL of cell suspension was pipetted onto the inlet port. […] Bacterial growth changed the pH of the liquid nutrient media containing the indicator phenol red, and produced a visible color change that was used to identify the cell growth in chambers.

E. coli (MG1655) [9] = assay: as above; type: cell-based; conditions: for MIC, Device: E. coli, 18 h at 35° C., CAMBH pH 8.2 with 1% glucose and 0.05% phenol red, dilution series 0.5-1024 μg/mL
Method: as §2, §3

E. faecalis (1131) [10] = assay: as above; type: cell-based; conditions: 18 h at 35° C., CAMBH pH 8.2 with 1% glucose and 0.05% phenol red, dilution series 0.5-1024 μg/mL
Method: as §2, §3

P. mirabilis (HI4320) [11] = assay: as above; type: cell-based; conditions: 18 h at 35° C., CAMBH pH 8.2 with 1% glucose and 0.05% phenol red, dilution series 0.5-1024 μg/mL
Method: as §2, §3

SMILES | effect on growth of the strain [1] | MIC, Broth (E. coli (MG1655) [2]) | MIC (E. coli (MG1655) [2]; Escherichia coli, MG1655, Example 5, standard liquid broth dilution assay, read-out: MIC of the wild type strain, control broth dilution) | MIC, Broth (K. pneumoniae [3]) | MIC [4] | MIC [5] | MIC, Broth (E. faecalis (1131) [6]) | MIC, Broth (P. mirabilis (HI4320) [7]) | MIC, Device (K. pneumoniae [8]) | MIC, Device (E. coli (MG1655) [9]) | MIC (E. coli (MG1655) [9]; Escherichia coli, MG1655, Example 5, 18 h at 35° C., phenol red indicator, read-out: MIC of the wild type strain) | MIC, Device (E. faecalis (1131) [10]) | MIC, Device (P. mirabilis (HI4320) [11]) | phenotype of the strain by breakpoint values ([1]; tetracycline breakpoints)
NC[C@H]1O[C@H](O[C@H]2[C@H](O)[C@@H](O[C@H]3O[C@H](CO)[C@@H](O)[C@H](N)[C@H]3O)[C@H](N)C[C@@H]2N)[C@H](O)[C@@H](O)[C@@H]1O [kanamycin, kanamycin monosulfate] | did not have any effect | 8 | 8 µg/mL | 2 | 64 µg/mL | 128 µg/mL | 64 | 4 | 2 | 4 | 4 µg/mL | 128 | 8 | –
CN(C)[C@@H]1C(O)=C(C(N)=O)C(=O)[C@@]2(O)C(O)=C3C(=O)c4c(O)cccc4[C@@](C)(O)[C@H]3C[C@@H]12.Cl [tetracycline, tetracycline hydrochloride] | inhibited the growth | 1 | – | 8 | – | – | 32 | 256 | 8 | 2 | – | 64 | 128 | intermediate (intermediate=2 μg/mL)
